From ChEMBL document CHEMBL1138025, “Nocathiacin I analogues: synthesis, in vitro and in vivo biological activity of novel semi-synthetic thiazolyl peptide antibiotics” (Bioorg Med Chem Lett, 2004)
≈ marks a conversion by molar mass, not a printed value.

Experiments:
[1] = tested on: Streptococcus pneumoniae; assay: In vitro antibacterial activity against penicillin-resistant Streptococcus pneumoniae A28272; type: functional
[2] = tested on: Enterococcus faecalis; assay: In vitro antibacterial activity against methicillin-sensitive Enterococcus faecalis A20688; type: functional
[3] = tested on: Staphylococcus aureus; assay: In vitro antibacterial activity against methicillin-sensitive Staphylococcus aureus A15090; type: functional
[4] = Equilibrium water solubility at pH 3.0; type: physicochemical
[5] = tested on: Mus musculus; assay: In vivo efficacy (PD50) against lethal Staphylococcus aureus systemic infection model in mice; type: functional; settings: read-out: PD50
[6] = Equilibrium water solubility at pH 2.9; type: physicochemical
[7] = Equilibrium water solubility at pH 3.4; type: physicochemical
[8] = Equilibrium water solubility at pH 3.1; type: physicochemical

Row | Compound | MIC [1] | MIC [2] | MIC [3] | solubility thermodynamic [4] | ED50 [5] | solubility thermodynamic [6] | solubility thermodynamic [7] | solubility thermodynamic [8]
1 | CCOC(=O)CN1CCN(CC(NC(=O)c2csc(-c3nc4c(cc3O)-c3nc(cs3)C(=O)N[C@@H]([C@@H](C)O)C(=O)N/C(=C(\C)OC)c3nc(cs3)C(=O)N[C@@H]3c5nc(cs5)C(=O)N[C@@H](COC(=O)c5c6c7c(cccc7n5O)COC(=O)[C@@H](O[C@H]5C[C@](C)(O)[C@H](N(C)C)[C@H](C)O5)[C@H]3OC6)c3nc-4cs3)n2)C(N)=O)CC1 (stereo partly drawn) | 0.007 µg/mL (≈ 0.00435 µM) | 0.25 µg/mL (≈ 0.155 µM) | 0.06 µg/mL (≈ 0.0373 µM) | – | – | – | – | –
2 | CO/C(C)=C1/NC(=O)[C@H]([C@@H](C)O)NC(=O)c2csc(n2)-c2cc(O)c(-c3nc(C(=O)NC(CN4CCN(c5ccncc5)CC4)C(N)=O)cs3)nc2-c2csc(n2)[C@@H]2COC(=O)c3c4c5c(cccc5n3O)COC(=O)[C@@H](O[C@H]3C[C@](C)(O)[C@H](N(C)C)[C@H](C)O3)[C@@H](OC4)[C@H](NC(=O)c3csc1n3)c1nc(cs1)C(=O)N2 (stereo partly drawn) | 0.06 µg/mL (≈ 0.0375 µM) | 0.5 µg/mL (≈ 0.312 µM) | 0.25 µg/mL (≈ 0.156 µM) | > 12500 µg/mL | 4.5 mg/kg | – | – | –
3 | CO/C(C)=C1/NC(=O)[C@H]([C@@H](C)O)NC(=O)c2csc(n2)-c2cc(O)c(-c3nc(C(=O)NC(CN4CCCC4)C(N)=O)cs3)nc2-c2csc(n2)[C@@H]2COC(=O)c3c4c5c(cccc5n3O)COC(=O)[C@@H](O[C@H]3C[C@](C)(O)[C@H](N(C)C)[C@H](C)O3)[C@@H](OC4)[C@H](NC(=O)c3csc1n3)c1nc(cs1)C(=O)N2 (stereo partly drawn) | 0.01 µg/mL (≈ 0.00663 µM) | 0.5 µg/mL (≈ 0.331 µM) | 0.06 µg/mL (≈ 0.0398 µM) | – | 2.5 mg/kg | > 3000 µg/mL | – | –
4 | CO/C(C)=C1/NC(=O)[C@H]([C@@H](C)O)NC(=O)c2csc(n2)-c2cc(O)c(-c3nc(C(=O)NC(CNCCc4ccccn4)C(N)=O)cs3)nc2-c2csc(n2)C2COC(=O)c3c4c5c(cccc5n3O)COC(=O)[C@@H](O[C@H]3C[C@](C)(O)[C@H](N(C)C)[C@H](C)O3)[C@@H](OC4)[C@H](NC(=O)c3csc1n3)c1nc(cs1)C(=O)N2 (stereo partly drawn) | 0.25 µg/mL (≈ 0.16 µM) | 1 µg/mL (≈ 0.641 µM) | 1 µg/mL (≈ 0.641 µM) | – | 2.8 mg/kg | – | > 10000 µg/mL | –
5 | CO/C(C)=C1/NC(=O)[C@H]([C@@H](C)O)NC(=O)c2csc(n2)-c2cc(O)c(-c3nc(C(=O)NC(CN(C)CCO)C(N)=O)cs3)nc2-c2csc(n2)[C@@H]2COC(=O)c3c4c5c(cccc5n3O)COC(=O)[C@@H](O[C@H]3C[C@](C)(O)[C@H](N(C)C)[C@H](C)O3)[C@@H](OC4)[C@H](NC(=O)c3csc1n3)c1nc(cs1)C(=O)N2 (stereo partly drawn) | 0.01 µg/mL (≈ 0.00661 µM) | 0.06 µg/mL (≈ 0.0397 µM) | 0.01 µg/mL (≈ 0.00661 µM) | – | 0.8 mg/kg | – | > 10000 µg/mL | –
6 | CO/C(C)=C1/NC(=O)[C@H]([C@@H](C)O)NC(=O)c2csc(n2)-c2cc(O)c(-c3nc(C(=O)NC(CN4CCN(CCN(C)C)CC4)C(N)=O)cs3)nc2-c2csc(n2)[C@@H]2COC(=O)c3c4c5c(cccc5n3O)COC(=O)[C@@H](O[C@H]3C[C@](C)(O)[C@H](N(C)C)[C@H](C)O3)[C@@H](OC4)[C@H](NC(=O)c3csc1n3)c1nc(cs1)C(=O)N2 (stereo partly drawn) | 0.25 µg/mL (≈ 0.157 µM) | 0.12 µg/mL (≈ 0.0752 µM) | 0.5 µg/mL (≈ 0.314 µM) | – | 5.3 mg/kg | – | > 3800 µg/mL | –
7 | CO/C(C)=C1/NC(=O)[C@H]([C@@H](C)O)NC(=O)c2csc(n2)-c2cc(O)c(-c3nc(C(=O)NC(CN4CCN(C)CC4)C(N)=O)cs3)nc2-c2csc(n2)[C@@H]2COC(=O)c3c4c5c(cccc5n3O)COC(=O)[C@@H](O[C@H]3C[C@](C)(O)[C@H](N(C)C)[C@H](C)O3)[C@@H](OC4)[C@H](NC(=O)c3csc1n3)c1nc(cs1)C(=O)N2 (stereo partly drawn) | 0.12 µg/mL (≈ 0.078 µM) | 0.5 µg/mL (≈ 0.325 µM) | 0.25 µg/mL (≈ 0.163 µM) | – | 1.4 mg/kg | – | > 10000 µg/mL | –
8 | CO/C(C)=C1/NC(=O)[C@H]([C@@H](C)O)NC(=O)c2csc(n2)-c2cc(O)c(-c3nc(C(=O)NC(CN4CCN(c5cccnc5)CC4)C(N)=O)cs3)nc2-c2csc(n2)[C@@H]2COC(=O)c3c4c5c(cccc5n3O)COC(=O)[C@@H](O[C@H]3C[C@](C)(O)[C@H](N(C)C)[C@H](C)O3)[C@@H](OC4)[C@H](NC(=O)c3csc1n3)c1nc(cs1)C(=O)N2 (stereo partly drawn) | 0.007 µg/mL (≈ 0.00437 µM) | 0.25 µg/mL (≈ 0.156 µM) | 0.06 µg/mL (≈ 0.0375 µM) | > 2300 µg/mL | 1.43 mg/kg | – | – | –
9 | CO/C(C)=C1/NC(=O)[C@H]([C@@H](C)O)NC(=O)c2csc(n2)-c2cc(O)c(-c3nc(C(=O)NC(CN(C)CCCNc4ccncc4)C(N)=O)cs3)nc2-c2csc(n2)[C@@H]2COC(=O)c3c4c5c(cccc5n3O)COC(=O)[C@@H](O[C@H]3C[C@](C)(O)[C@H](N(C)C)[C@H](C)O3)[C@@H](OC4)[C@H](NC(=O)c3csc1n3)c1nc(cs1)C(=O)N2 (stereo partly drawn) | 0.25 µg/mL (≈ 0.156 µM) | 0.5 µg/mL (≈ 0.312 µM) | 1 µg/mL (≈ 0.624 µM) | > 3000 µg/mL | > 10 mg/kg | – | – | –
10 | CO/C(C)=C1/NC(=O)[C@H]([C@@H](C)O)NC(=O)c2csc(n2)-c2cc(O)c(-c3nc(C(=O)NC(CN4CCOCC4)C(N)=O)cs3)nc2-c2csc(n2)[C@@H]2COC(=O)c3c4c5c(cccc5n3O)COC(=O)[C@@H](O[C@H]3C[C@](C)(O)[C@H](N(C)C)[C@H](C)O3)[C@@H](OC4)[C@H](NC(=O)c3csc1n3)c1nc(cs1)C(=O)N2 (stereo partly drawn) | 0.01 µg/mL (≈ 0.00656 µM) | 0.01 µg/mL (≈ 0.00656 µM) | 0.007 µg/mL (≈ 0.00459 µM) | – | 0.8 mg/kg | – | – | > 2100 µg/mL
11 | CO/C(C)=C1/NC(=O)[C@H]([C@@H](C)O)NC(=O)c2csc(n2)-c2cc(O)c(-c3nc(C(=O)NC(CN4CCN(CCOCCO)CC4)C(N)=O)cs3)nc2-c2csc(n2)[C@@H]2COC(=O)c3c4c5c(cccc5n3O)COC(=O)[C@@H](O[C@H]3C[C@](C)(O)[C@H](N(C)C)[C@H](C)O3)[C@@H](OC4)[C@H](NC(=O)c3csc1n3)c1nc(cs1)C(=O)N2 (stereo partly drawn) | 0.12 µg/mL (≈ 0.0745 µM) | 1 µg/mL (≈ 0.62 µM) | 0.5 µg/mL (≈ 0.31 µM) | – | 1.34 mg/kg | – | – | > 3000 µg/mL
12 | CO/C(C)=C1/NC(=O)[C@H]([C@@H](C)O)NC(=O)c2csc(n2)-c2cc(O)c(-c3nc(C(=O)NC(CNCCN(C)C)C(N)=O)cs3)nc2-c2csc(n2)[C@@H]2COC(=O)c3c4c5c(cccc5n3O)COC(=O)[C@@H](O[C@H]3C[C@](C)(O)[C@H](N(C)C)[C@H](C)O3)[C@@H](OC4)[C@H](NC(=O)c3csc1n3)c1nc(cs1)C(=O)N2 (stereo partly drawn) | 0.03 µg/mL (≈ 0.0197 µM) | 4 µg/mL (≈ 2.62 µM) | 2 µg/mL (≈ 1.31 µM) | – | 4.2 mg/kg | – | – | > 3800 µg/mL
13 | CO/C(C)=C1/NC(=O)[C@H]([C@@H](C)O)NC(=O)c2csc(n2)-c2cc(O)c(-c3nc(C(=O)NC(CN4CCN(CCN5CCOCC5)CC4)C(N)=O)cs3)nc2-c2csc(n2)[C@@H]2COC(=O)c3c4c5c(cccc5n3O)COC(=O)[C@@H](O[C@H]3C[C@](C)(O)[C@H](N(C)C)[C@H](C)O3)[C@@H](OC4)[C@H](NC(=O)c3csc1n3)c1nc(cs1)C(=O)N2 (stereo partly drawn) | 0.06 µg/mL (≈ 0.0367 µM) | 0.5 µg/mL (≈ 0.305 µM) | 0.25 µg/mL (≈ 0.153 µM) | > 12300 µg/mL | 1.4 mg/kg | – | – | –
14 | CO/C(C)=C1/NC(=O)[C@H]([C@@H](C)O)NC(=O)c2csc(n2)-c2cc(O)c(-c3nc(C(=O)NC(CN4CCN(c5ccccn5)CC4)C(N)=O)cs3)nc2-c2csc(n2)[C@@H]2COC(=O)c3c4c5c(cccc5n3O)COC(=O)[C@@H](O[C@H]3C[C@](C)(O)[C@H](N(C)C)[C@H](C)O3)[C@@H](OC4)[C@H](NC(=O)c3csc1n3)c1nc(cs1)C(=O)N2 (stereo partly drawn) | 0.03 µg/mL (≈ 0.0187 µM) | 0.25 µg/mL (≈ 0.156 µM) | 0.12 µg/mL (≈ 0.075 µM) | > 2400 µg/mL | < 0.62 mg/kg | – | – | –
15 | CO/C(C)=C1/NC(=O)[C@H]([C@@H](C)O)NC(=O)c2csc(n2)-c2cc(O)c(-c3nc(C(=O)NC(CN(C)CCN4CCCCC4)C(N)=O)cs3)nc2-c2csc(n2)[C@@H]2COC(=O)c3c4c5c(cccc5n3O)COC(=O)[C@@H](O[C@H]3C[C@](C)(O)[C@H](N(C)C)[C@H](C)O3)[C@@H](OC4)[C@H](NC(=O)c3csc1n3)c1nc(cs1)C(=O)N2 (stereo partly drawn) | 0.03 µg/mL (≈ 0.019 µM) | 1 µg/mL (≈ 0.633 µM) | 0.12 µg/mL (≈ 0.076 µM) | > 2700 µg/mL | 3.2 mg/kg | – | – | –
16 | CO/C(C)=C1/NC(=O)[C@H]([C@@H](C)O)NC(=O)c2csc(n2)-c2cc(O)c(-c3nc(C(=O)NC(CNCCNC(C)=O)C(N)=O)cs3)nc2-c2csc(n2)[C@@H]2COC(=O)c3c4c5c(cccc5n3O)COC(=O)[C@@H](O[C@H]3C[C@](C)(O)[C@H](N(C)C)[C@H](C)O3)[C@@H](OC4)[C@H](NC(=O)c3csc1n3)c1nc(cs1)C(=O)N2 (stereo partly drawn) | 0.12 µg/mL (≈ 0.0779 µM) | 4 µg/mL (≈ 2.6 µM) | 1 µg/mL (≈ 0.649 µM) | – | > 10 mg/kg | – | – | > 3000 µg/mL
17 | CNCCN(C)CC(NC(=O)c1csc(-c2nc3c(cc2O)-c2nc(cs2)C(=O)N[C@@H]([C@@H](C)O)C(=O)N/C(=C(\C)OC)c2nc(cs2)C(=O)N[C@@H]2c4nc(cs4)C(=O)N[C@@H](COC(=O)c4c5c6c(cccc6n4O)COC(=O)[C@@H](O[C@H]4C[C@](C)(O)[C@H](N(C)C)[C@H](C)O4)[C@H]2OC5)c2nc-3cs2)n1)C(N)=O (stereo partly drawn) | 0.001 µg/mL (≈ 0.000655 µM) | 0.5 µg/mL (≈ 0.328 µM) | 0.06 µg/mL (≈ 0.0393 µM) | > 2800 µg/mL | > 10 mg/kg | – | – | –
